Assay results reported in patent publication US20210275606A1, “COMPOSITIONS COMPRISING BACTERIAL STRAINS” (4D Pharma Research Limited, priority 2018, published 2021).
Values joined by “and” are separate entries in the source; they are usually repeats but may differ in a detail not shown here. Equal values may be shown once. Where a name gives a salt, the structure may show the parent alone.

Legend:
[1] = test system: DSS-induced colitis mouse model; assay: DSS-induced colitis mouse model, ileum histology; assay type: in vivo; parameters: key to Erosion (epithelial cell damage) / Depletion of goblet cells / Edema / Leucocytes Infiltration: 0: None; Minimal <10%; Mild 10-25%; 3: Moderate 26-50%; 4: Marked >50%; COLITIS SCORING (sum) / COLITIS SCORING mean ± SEM: scale not given here; details: Day 7; for COLITIS SCORING mean ± SEM: group mean, n = 9, 3% DSS; for Depletion of goblet cells / Edema / Erosion (epithelial cell damage) / Leucocytes Infiltration: ileum histology score 0-4, individual mouse; for COLITIS SCORING (sum): sum of the four ileum histology scores, individual mouse
Protocol: The objective of this study was to determine the prophylactic efficacy of R. intestinalis strain 43043 in a DSS-induced colitis mouse model, upon repeated oral administration.
Tacrolimus was dosed at 1 mg/kg/day
Valproic acid was dosed at 200 mg/kg/day
PBS, YCFA and bacterial cultures were dosed at 200 μL/day
Each of sixty three, 6 week old healthy male C57BL/6J mice were obtained from Charles River (France) and individually identified and labelled with a specific code. Each treatment group (9 animals/group) were housed in three different cages.
Days −7 to Day −1: Treatment with bacteria and reference substances according the treatment table above • Once daily oral administration of PBS, YCF A or Bacteria—200 μL per mouse • Once daily oral administration of Valproic acid at 200 mg/kg/day under a volume of 10 mL/kg From Day O to Day+7: DSS administration • Administration of 3% DSS in the drinking water From Day O to Day+6: Treatment with bacteria and reference substances • Once daily oral administration of PBS, YCFA or Bacteria—200 μL per mouse • Once daily oral administration of Valproic acid—200 mg/kg in sterile distilled water—10 mL/kg • Once daily SC administration of Tacrolimus—1 mg/kg in sterile 1% Tween80, 0.9% NaCl—10 mL/kg Day+7: Sacrifice of all groups and tissue harvesting • Euthanasia of animals was performed under gas anesthesia (Isoflurane) followed by exsanguination and cervical dislocation. Euthanasia methods used are those recommended for mice and rats by European directive 20 I 0/63/CE and the procedure describing euthanasia methods was approved by IACUC. • Laparotomy and ileum harvesting, just upstream of the caecum (from 0.5 cm and on)—all tissue harvested from exactly the same area between all mice: • 1.5 cm swiss-rolled ileum was harvested for histology, the closest to the caecum
Ileum Swiss-rolls specimens were embedded in paraffin and sections of 5 μm thickness were cut and mounted on SuperFrost Ultra plus glass slides. HP (Hematoxylin-Phloxin) staining & AB-PAS (Alcian Blue-Periodic Acid Schiff) staining were performed to visualize histomorphologic changes. A scoring based on edema, erosion, loss of crypts/goblet cells and infiltrates was established on each animal, using the criteria in the following table: […]

[2] = test system: graft versus host disease (GVHD) induced in Balb/C mice; assay: Graft versus host disease (GVHD) induced in Balb/C mice; assay type: in vivo, mouse; details: for mean body weight over the course of the study: compared with Group 4 (PBS, TBI + allogeneic transfer), daily dosing Days -14 to 30
Source text: Male Balb/C mice (BALB/cAnNCrl; 6-8 weeks old; n=125) with an average starting body weight (±SEM) of 20.67±0.11 g were obtained from Charles River Laboratories (Wilmington, Mass.). An additional n=75 male C57Bl/6 (C57Bl/6NCrl; 6-8 weeks old) were obtained from the same vendor. Animals were acclimatized prior to study commencement. During this period, the animals were observed daily in order to reject any that presented in poor condition.
Animals were randomized into 5 groups at the start of the study. Each group comprised between 8 and 12 mice. Each group was further sub-divided into cohorts A and B (n=4-6 mice per group per cohort); cohorts had staggered disease timelines.
All animals were weighed and randomized by weight into treatment groups prior to study start. Prior to GVHD induction on Days −1 and 0, all animals were pre-treated (P0) with PBS (Groups 1-4), bacterial strain 43043 (Group 5), or Butyrate salt control (Group 6) daily starting on Day −14. Butyrate was used as a positive control as butyrate deficit has been identified in the gut of GVHD patients. Treatments were administered to groups at random, and group treatments were alternated daily to prevent the same groups from being treated at the same time each day. Once test article dosing had begun, care was taken to minimize group cross-contamination: gloves were changed by the technician between treatment groups, and were sprayed with 70% isopropyl alcohol between each cage of the same group.
GVHD was induced in n=84 Balb/C mice (Groups 4-10) using a single acute dose of 8 Gy of total body irradiation (TBI) on Day −1. On Day 0, these recipient mice were given an intravenous injection of a combination of T cell depleted bone marrow cells and splenic cells from donor C57Bl/6 mice in PBS. Bone marrow cells were isolated using standard flushing practices, and were T cell depleted using the cell surface T cell antigen CD3, with a CD3-biotin kit (Miltenyi Biotec catalog 130-094-973). Splenocytes were isolated using Miltenyi GentleMACS Dissociators. Animals in Group 1 served as naïve controls and received neither TBI nor cell transfer. […] Animals in Group 3 served as syngeneic adoptive transfer controls; these animals received 8 Gy of TBI on Day −1, and an intravenous injection of a combination of T cell depleted bone marrow cells and splenic cells from donor Balb/C mice in sterile PBS.
Daily test article dosing continued for the duration of the study (Days −14 to 30). Animal survival was recorded daily, as an indication of GVHD severity. […] The GVHD score was assessed by a standard scoring system based on five criteria (Table 21): percentage of weight change, posture (hunching), activity, fur texture, and skin integrity (maximum score=10). […]

HDAC [3] = assay: HDAC inhibition on HT-29 cell lysate; assay type: biochemical
Protocol: (§1) Whole cells and cell free supernatants of stationary phase 43043 cultures were isolated by centrifugation and filtering in a 0.22 uM filter. HT-29 cells were used 3 days' post confluence and stepped down in 1 mL DTS 24 hours prior to commencement of the experiment. The HT-29 cells were challenged with 10% cell free supernatant diluted in DTS and this was left to incubate for 48 hours. […] were then extracted using the Sigma Aldrich Nuclease extraction kit and samples were snap frozen prior to HDAC activity measurement. HDAC activity kit was assessed fluorometrically using the Sigma Aldrich (UK) kit.
(§2) To investigate which metabolites were responsible for the strain-induced HDAC inhibition, different concentrations of hexanoic acid, valeric acid and sodium butyrate were measured for their HDAC inhibition on whole HT-29 cells and on HT-29 cell lysate.

HDAC [4] = assay: Global HDAC activity analysis in HT-29 cells; assay type: cell-based; details: for inhibition of total HDAC activity: whole HT-29 cells and HT-29 cell lysate tested, sentence does not say which
Protocol: Pure cultures of 43043 bacteria were grown anaerobically in YCFA broth until they reached their stationary growth phase. Cultures were centrifuged at 5,000×g for 5 minutes and the cell-free supernatant (CFS) was filtered using a 0.2 μM filter (Millipore, UK). 1 mL aliquots of the CFS were stored at −80° C. until use. Sodium butyrate, hexanoic and valeric acid were obtained from Sigma Aldrich (UK) and suspensions were prepared in YCFA broth.
as §1, §2

CCCC(CCC)C(=O)O [Valproic acid, Valproic Acid]
COLITIS SCORING mean ± SEM [1]: 0.67 ± 0.10
Depletion of goblet cells ([1]; 3% DSS): 0
Edema ([1]; 3% DSS): 0
Erosion (epithelial cell damage) ([1]; 3% DSS): 0
Leucocytes Infiltration ([1]; 3% DSS): 2 (Mild 10-25%) (2×) and 1 (Minimal <10%) (2×) and 0 (5×)
COLITIS SCORING (sum) ([1]; 3% DSS): 2 (2×) and 1 (2×) and 0 (5×)

CCCC(=O)O [Butyrate salt]
Mean colitis severity scores (endoscopy) ([2]; Day 29, as compared to naïve mice (Group 1)): increased
mean GVHD scores ([2]; Days 0 to 30, AUC, compared to Group 3 (syngeneic transfer), with and without scores carried forward): significantly increased mean GVHD scores as compared to Group 3
mean body weight over the course of the study [2]: No significant differences in mean body weight

CCCC(=O)[O-].[Na+] [sodium butyrate, Sodium butyrate]
inhibition of HDAC activity (HDAC [3]): significant (P<0.05) inhibition of HDAC activity
inhibition of HDAC activity (HDAC [4]; on whole HT-29 cells): significant (P<0.05) inhibition of HDAC activity

CCCCC(=O)O [Valeric acid, valeric acid]
inhibition of total HDAC activity (HDAC [4]): inhibited total HDAC activity

CCCCCC(=O)O [hexanoic acid]
inhibition of total HDAC activity (HDAC [4]): did show significant inhibitory activity

C=CC[C@@H]1/C=C(\C)C[C@H](C)C[C@H](OC)[C@H]2O[C@@](O)(C(=O)C(=O)N3CCCC[C@H]3C(=O)O[C@H](/C(C)=C/[C@@H]3CC[C@@H](O)[C@H](OC)C3)[C@H](C)[C@@H](O)CC1=O)[C@H](C)C[C@@H]2OC [Tacrolimus]
mean body weight over the course of the study [2]: same trend was observed
leukocyte infiltration in the ileum ([1]; group comparison in text, 3% DSS): reduced leukocyte infiltration comparable to controls
COLITIS SCORING mean ± SEM [1]: 0.44 ±0.08
Depletion of goblet cells ([1]; 3% DSS): 0
Edema ([1]; 3% DSS): 0
Erosion (epithelial cell damage) ([1]; 3% DSS): 0
Leucocytes Infiltration ([1]; 3% DSS): 0 (6×) and 2 (Mild 10-25%) and 1 (Minimal <10%) (2×)
COLITIS SCORING (sum) ([1]; 3% DSS): 0 (6×) and 2 and 1 (2×)
